Reference: patent US20100008868A1, “SUSTAINED REMISSION OF ATOPIC DERMATITIS” (priority 2007, published 2010)

Legend:
atopic dermatitis [1] = assay: Topical treatment of atopic dermatitis lesions in individual subjects (case reports, Examples 11-15); assay type: in vivo, human; conditions: topical application to atopic dermatitis lesion
Source text: The product was applied on an irregular basis with the longest exposure time at night.
A subject with an atopic dermatitis lesion on the palm of the right hand is presently being treated with the invention containing betamethasone and clemastine hydrogen fumarate.

atopic dermatitis [2] = conditions: cited from earlier work
[3] = 15, 45, and 120 mg/kg/day orally, 39 weeks; cited from earlier work
atopic dermatitis [4] = conditions: 0.2%, 0.6% and 1.0% creams; 260 patients; cited from earlier work
[5] = 192 adults with moderate to severe AD

Row | Molecule | outcome of the lesion (atopic dermatitis [1]) | days on which corticosteroid medication for flares was used (atopic dermatitis [2]; 24-week treatment period) | median time to first flare (atopic dermatitis [2]; [5]) [days] | patients who did not experience a flare (atopic dermatitis [2]; [5]) [%] | finding associated with oral dosing [3] | efficacy vs vehicle (atopic dermatitis [4])
1 | betamethasone propionate | no improvement | – | – | – | – | –
2 | CC[C@@H]1/C=C(\C)C[C@H](C)C[C@H](OC)[C@H]2O[C@@](O)(C(=O)C(=O)N3CCCC[C@H]3C(=O)O[C@H](/C(C)=C/[C@@H]3CC[C@H](Cl)[C@H](OC)C3)[C@H](C)[C@@H](O)CC1=O)[C@H](C)C[C@@H]2OC [pimecrolimus] | – | 14.2 % of the days | 144 | 44.8 | immunosuppression-related lymphoproliferative disorders | significantly more effective than vehicle
